According to patent publication US4605641A, “Synthetic vasoactive intestinal peptide analogs” (Hoffmann-La Roche Inc., priority 1984, dated 1986):
Peptide text beside a SMILES is read from it.

Tested on: guinea pig trachea smooth muscle
Assay: Bronchodilator (relaxant) effect on isolated guinea pig tracheal rings
Format: cell-based
Settings: for Relative Potency: guinea pig trachea, relative to VIP = 100%; for EC50: guinea pig tracheal rings, relaxation as % of maximum response to VIP 10^-6 M, three tissues pooled, linear regression, read-out: EC50 (M), agonist activity, bronchodilator effect
Description: The bronchodilatory effect of VIP analogs was studied in a model utilizing guinea pig trachea. Wasserman, M. A. et al. "Comparative In Vitro Tracheal Relaxant Effects of Porcine and Hen VIP" in Vasoactive Intestinal Peptide ed. Said, S.I., Raven Press (New York, 1982).
All tissues were taken from male albino guinea pigs weighing 400-600 g, anesthetized with urethane 2 g/kg i.p. After exsanguination the trachea was removed and divided into four ring segments (3 mm length). Each ring was suspended by two 30 guage stainless steel wires in a 10 ml jacket tissue bath and attached via 4-0 silk thread to a Grass force displacement transducer (model FT03C, Grass Instrument Co., Quincy, MA), for isometric recording of tension. The smooth muscle was bathed in modified Krebs solution of the following composition: NaCl, 120 mM; KCl, 4.7 mM; CaCl2, 2.5 mM; MgSO4.7H2 O; 1.2 mM; NaHCO3, 25 mM; KH2 PO4 monobasic, 1.2 mM; and dextrose, 10 mM. Tissue baths were maintained at 37.5° C. and constantly bubbled with 95% O2 and 5% CO2. Responses were recorded on an 8 channel and 4 channel Hewlett-Packard (model 7702B and 7754A, respectively) recorder (Hewlett Packard, Paramus, NJ). Tracheal rings were placed under a resting tension of 1.5 g which was determined to be at or near optimal in preliminary experiments. Frequent readjustments of tension were required during the 60 min. stabilization period which followed. Tissues were rinsed at 15 min. intervals.
Cumulative concentration response curves were obtained for each tissue by successive […] in the bath concentration of VIP or potential VIP agonists according to the method of VanRossum J. M., Arch. Int Pharmacodyn, 143, 299-330 (1963). Only one cummulative dose response curve was obtained on a single piece of tissue. To minimize variability between tissues, relaxant responses are expressed as a percentage of the maximum response obtainable to VIP (10^-6 M=100%) added at the end of the concentration response curve. Responses obtained from three tissues were pooled and EC50 values were determined by linear regression.

EC50 [M] | Structure (SMILES) | Relative Potency [%]
5.8e-09 | CCCC[C@H](NC(=O)[C@H](CCC(N)=O)NC(=O)[C@H](CCCCN)NC(=O)[C@H](CCCCN)NC(=O)[C@H](CC(C)C)NC(=O)[C@H](CCCNC(=N)N)NC(=O)[C@@H](NC(=O)[C@H](Cc1ccc(O)cc1)NC(=O)[C@H](CC(N)=O)NC(=O)[C@H](CC(=O)O)NC(=O)[C@@H](NC(=O)[C@H](Cc1ccccc1)NC(=O)[C@@H](NC(=O)[C@H](C)NC(=O)[C@H](CC(=O)O)NC(=O)[C@H](CO)NC(=O)[C@@H](N)Cc1c[nH]cn1)C(C)C)[C@@H](C)O)[C@@H](C)O)C(=O)N[C@@H](C)C(=O)N[C@H](C(=O)N[C@@H](CCCCN)C(=O)N[C@@H](CCCCN)C(=O)N[C@@H](Cc1ccc(O)cc1)C(=O)N[C@@H](CC(C)C)C(=O)N[C@@H](CC(N)=O)C(=O)N[C@@H](CO)C(=O)N[C@H](C(=O)N[C@@H](CC(C)C)C(=O)N[C@@H](CC(N)=O)C(N)=O)[C@@H](C)CC)C(C)C [(Lys^14, Nle^17)--VIP, (Lys^14, Nle^17)VIP] (HELM PEPTIDE1{H.S.D.A.V.F.T.D.N.Y.T.R.L.K.K.Q.[Nle].A.V.K.K.Y.L.N.S.I.L.N.[am]}$$$$V2.0) | 172
4.8e-09 | CCCC[C@H](NC(=O)[C@H](CCC(N)=O)NC(=O)[C@H](CCCCN)NC(=O)[C@H](CCCNC(=N)N)NC(=O)[C@H](CC(C)C)NC(=O)[C@H](CCCNC(=N)N)NC(=O)[C@@H](NC(=O)[C@H](Cc1ccc(O)cc1)NC(=O)[C@H](CC(N)=O)NC(=O)[C@H](CC(=O)O)NC(=O)[C@@H](NC(=O)[C@H](Cc1ccccc1)NC(=O)[C@@H](NC(=O)[C@H](C)NC(=O)[C@H](CC(=O)O)NC(=O)[C@H](CO)NC(=O)[C@@H](N)Cc1c[nH]cn1)C(C)C)[C@@H](C)O)[C@@H](C)O)C(=O)N[C@@H](C)C(=O)N[C@H](C(=O)N[C@@H](CCCCN)C(=O)N[C@@H](CCCCN)C(=O)N[C@@H](Cc1ccc(O)cc1)C(=O)N[C@@H](CC(C)C)C(=O)N[C@@H](CC(N)=O)C(=O)N[C@@H](CO)C(=O)N[C@H](C(=O)N[C@@H](CC(C)C)C(=O)N[C@H](C(N)=O)[C@@H](C)O)C(C)C)C(C)C [(Nle^17, Val^26, Thr^28)--VIP, (Nle^17, Val^26, Thr^28)VIP] (HELM PEPTIDE1{H.S.D.A.V.F.T.D.N.Y.T.R.L.R.K.Q.[Nle].A.V.K.K.Y.L.N.S.V.L.T.[am]}$$$$V2.0) | 208
2.2e-08 | CCCC[C@H](NC(=O)[C@H](CCC(N)=O)NC(=O)[C@H](CCCCN)NC(=O)[C@H](CCCNC(=N)N)NC(=O)[C@H](Cc1ccccc1)NC(=O)[C@H](CCCNC(=N)N)NC(=O)[C@H](CO)NC(=O)[C@H](Cc1ccc(O)cc1)NC(=O)[C@H](CC(N)=O)NC(=O)[C@H](CC(=O)O)NC(=O)[C@@H](NC(=O)[C@H](Cc1ccccc1)NC(=O)[C@@H](NC(=O)[C@H](C)NC(=O)[C@H](CC(=O)O)NC(=O)[C@H](CO)NC(=O)[C@H](Cc1c[nH]cn1)NC(C)=O)C(C)C)[C@@H](C)O)C(=O)N[C@@H](C)C(=O)N[C@H](C(=O)N[C@@H](CCCCN)C(=O)N[C@@H](CCCCN)C(=O)N[C@@H](Cc1ccc(O)cc1)C(=O)N[C@@H](CC(C)C)C(=O)N[C@@H](CC(N)=O)C(=O)N[C@@H](CO)C(=O)N[C@H](C(=O)N[C@@H](CC(C)C)C(=O)N[C@@H](CC(N)=O)C(N)=O)[C@@H](C)CC)C(C)C [Ac--(Ser^11, Phe^13, Nle^17)--VIP, Ac-(Ser^11, Phe^13, Nle^17)VIP] (HELM PEPTIDE1{[ac].H.S.D.A.V.F.T.D.N.Y.S.R.F.R.K.Q.[Nle].A.V.K.K.Y.L.N.S.I.L.N.[am]}$$$$V2.0) | 45
